Source: article PMC6547681 (Nature Communications, 2019)

Assays:
[1] = target: BCL-2 G101V/E152A double mutant (Homo sapiens, UniProt P10415, E152A/G101V); test: Steady-state competition SPR against immobilised BIMBH3 peptide, BCL-2 G101V/E152A double mutant; type: binding
Method: SPR experiments were performed as previously described. […] The lowest concentrations used in direct binding experiments were 1 nM for BIAcore 4000 and 0.1 nM for BIAcore S200 instruments, concentrations below these were below the sensitivity thresholds for the instruments. […] Direct binding experiments were fitted to a 1:1 binding site kinetic model, fitting on and off rates, in BIAevaluation software. For competition experiments steady-state responses were determined in BIAevaluation software according to the software defaults in affinity evaluation mode averaging responses for 5 sec. […] All affinity measurements were performed in at least two independent experiments using independent protein preparations.

[2] = test system: KMS-12-PE cells expressing BCL-2 G101V; test: CellTiter-Glo cell viability, KMS-12-PE cells overexpressing BCL-2 G101V; conditions: read-out: S55746 LC50, KMS-12-PE overexpressing BCL-2 G101V, 24 h, mean ± SD, n = 3
Method: (§1) KMS-12-PE (sourced from DSMZ in 2013; Cat#ACC606) were cultured with HTRPMI with 10% fetal bovine serum. Early passages (P5-P7) after purchase were cryopreserved and thawed for the experiments. Cells beyond passage 15 were not used. Monthly tests for mycoplasma were consistently negative (MycoAlert mycoplasma detection kit; Lonza, GA, USA).
(§2) Cell viability 24 h after treatment was then determined using the CellTiter-Glo assay (Promega, Cat#G9241). […] Experiments were performed on three separate occasions; the data is shown as the means ± SD of those three independent experiments.

[3] = test system: KMS-12-PE cells expressing BCL-2 WT; test: CellTiter-Glo cell viability, KMS-12-PE cells overexpressing BCL-2 WT; conditions: read-out: S55746 LC50, KMS-12-PE overexpressing BCL-2 WT, 24 h, mean ± SD, n = 3
Method: as §1, §2

BCL-2 G101V/E152A double mutant, sequence (P10415 with tags, fused parts or gaps G101V/E152A): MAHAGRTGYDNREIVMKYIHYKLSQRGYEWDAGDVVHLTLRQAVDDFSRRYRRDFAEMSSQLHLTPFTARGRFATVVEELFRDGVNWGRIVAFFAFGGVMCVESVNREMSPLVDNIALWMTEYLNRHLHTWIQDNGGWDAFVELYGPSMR

## O=C(c1cc(-c2cc3c(cc2C(=O)N2Cc4ccccc4C[C@H]2CN2CCOCC2)OCO3)n2c1CCCC2)N(c1ccccc1)c1ccc(O)cc1 [S55746]
[1]; S55746 concentration 20, BCL-2 concentration 10 nM, independent experiment 1
  Raw data values in Figure 3h (SPR response): 30.4614
[1]; S55746 concentration 20, BCL-2 concentration 10 nM, independent experiment 2
  Raw data values in Figure 3h (SPR response): 6.021
[1]; S55746 concentration 20, BCL-2 concentration 20 nM, independent experiment 1
  Raw data values in Figure 3h (SPR response): 65.5037
[1]; S55746 concentration 20, BCL-2 concentration 20 nM, independent experiment 2
  Raw data values in Figure 3h (SPR response): 18.8646
[1]; S55746 concentration 20, BCL-2 concentration 30 nM, independent experiment 1
  Raw data values in Figure 3h (SPR response): 76.9824
[1]; S55746 concentration 20, BCL-2 concentration 30 nM, independent experiment 2
  Raw data values in Figure 3h (SPR response): 27.9038
[1]; S55746 concentration 20, BCL-2 concentration 40 nM, independent experiment 1
  Raw data values in Figure 3h (SPR response): 81.6304
[1]; S55746 concentration 20, BCL-2 concentration 40 nM, independent experiment 2
  Raw data values in Figure 3h (SPR response): 34.3045
[1]; S55746 concentration 20, BCL-2 concentration 50 nM, independent experiment 1
  Raw data values in Figure 3h (SPR response): 84.581
[1]; S55746 concentration 20, BCL-2 concentration 50 nM, independent experiment 2
  Raw data values in Figure 3h (SPR response): 38.4913
[1]; S55746 concentration 20, BCL-2 concentration 60 nM, independent experiment 1
  Raw data values in Figure 3h (SPR response): 86.8988
[1]; S55746 concentration 20, BCL-2 concentration 60 nM, independent experiment 2
  Raw data values in Figure 3h (SPR response): 42.4602
[1]; S55746 concentration 20, BCL-2 concentration 70 nM, independent experiment 1
  Raw data values in Figure 3h (SPR response): 87.9145
[1]; S55746 concentration 20, BCL-2 concentration 70 nM, independent experiment 2
  Raw data values in Figure 3h (SPR response): 45.435
[1]; S55746 concentration 20, BCL-2 concentration 80 nM, independent experiment 1
  Raw data values in Figure 3h (SPR response): 88.9424
[1]; S55746 concentration 20, BCL-2 concentration 80 nM, independent experiment 2
  Raw data values in Figure 3h (SPR response): 47.8619
[1]; S55746 concentration 20, BCL-2 concentration 100 nM, independent experiment 1
  Raw data values in Figure 3h (SPR response): 90.7371
[1]; S55746 concentration 20, BCL-2 concentration 100 nM, independent experiment 2
  Raw data values in Figure 3h (SPR response): 52.9424
[1]; S55746 concentration 20, BCL-2 concentration 150 nM, independent experiment 1
  Raw data values in Figure 3h (SPR response): 92.2147
[1]; S55746 concentration 20, BCL-2 concentration 150 nM, independent experiment 2
  Raw data values in Figure 3h (SPR response): 60.437
[1]; S55746 concentration 20, BCL-2 concentration 200 nM, independent experiment 1
  Raw data values in Figure 3h (SPR response): 94.1481
[1]; S55746 concentration 20, BCL-2 concentration 200 nM, independent experiment 2
  Raw data values in Figure 3h (SPR response): 65.8724
[1]; S55746 concentration 40, BCL-2 concentration 10 nM, independent experiment 1
  Raw data values in Figure 3h (SPR response): 10.773
[1]; S55746 concentration 40, BCL-2 concentration 10 nM, independent experiment 2
  Raw data values in Figure 3h (SPR response): 1.948
[1]; S55746 concentration 40, BCL-2 concentration 20 nM, independent experiment 1
  Raw data values in Figure 3h (SPR response): 28.9257
[1]; S55746 concentration 40, BCL-2 concentration 20 nM, independent experiment 2
  Raw data values in Figure 3h (SPR response): 5.643
[1]; S55746 concentration 40, BCL-2 concentration 30 nM, independent experiment 1
  Raw data values in Figure 3h (SPR response): 52.4298
[1]; S55746 concentration 40, BCL-2 concentration 30 nM, independent experiment 2
  Raw data values in Figure 3h (SPR response): 13.0173
[1]; S55746 concentration 40, BCL-2 concentration 40 nM, independent experiment 1
  Raw data values in Figure 3h (SPR response): 71.0654
[1]; S55746 concentration 40, BCL-2 concentration 40 nM, independent experiment 2
  Raw data values in Figure 3h (SPR response): 23.2512
[1]; S55746 concentration 40, BCL-2 concentration 50 nM, independent experiment 1
  Raw data values in Figure 3h (SPR response): 78.1857
[1]; S55746 concentration 40, BCL-2 concentration 50 nM, independent experiment 2
  Raw data values in Figure 3h (SPR response): 30.4785
[1]; S55746 concentration 40, BCL-2 concentration 60 nM, independent experiment 1
  Raw data values in Figure 3h (SPR response): 82.5478
[1]; S55746 concentration 40, BCL-2 concentration 60 nM, independent experiment 2
  Raw data values in Figure 3h (SPR response): 36.3344
[1]; S55746 concentration 40, BCL-2 concentration 70 nM, independent experiment 1
  Raw data values in Figure 3h (SPR response): 84.8279
[1]; S55746 concentration 40, BCL-2 concentration 70 nM, independent experiment 2
  Raw data values in Figure 3h (SPR response): 40.4837
[1]; S55746 concentration 40, BCL-2 concentration 80 nM, independent experiment 1
  Raw data values in Figure 3h (SPR response): 86.613
[1]; S55746 concentration 40, BCL-2 concentration 80 nM, independent experiment 2
  Raw data values in Figure 3h (SPR response): 44.3565
[1]; S55746 concentration 40, BCL-2 concentration 100 nM, independent experiment 1
  Raw data values in Figure 3h (SPR response): 88.6534
[1]; S55746 concentration 40, BCL-2 concentration 100 nM, independent experiment 2
  Raw data values in Figure 3h (SPR response): 49.9278
[1]; S55746 concentration 40, BCL-2 concentration 150 nM, independent experiment 1
  Raw data values in Figure 3h (SPR response): 91.2516
[1]; S55746 concentration 40, BCL-2 concentration 150 nM, independent experiment 2
  Raw data values in Figure 3h (SPR response): 58.1685
[1]; S55746 concentration 40, BCL-2 concentration 200 nM, independent experiment 1
  Raw data values in Figure 3h (SPR response): 92.8828
[1]; S55746 concentration 40, BCL-2 concentration 200 nM, independent experiment 2
  Raw data values in Figure 3h (SPR response): 64.0843
[1]; S55746 concentration 60, BCL-2 concentration 10 nM, independent experiment 1
  Raw data values in Figure 3h (SPR response): 8.7572
[1]; S55746 concentration 60, BCL-2 concentration 10 nM, independent experiment 2
  Raw data values in Figure 3h (SPR response): 1.402
[1]; S55746 concentration 60, BCL-2 concentration 20 nM, independent experiment 1
  Raw data values in Figure 3h (SPR response): 17.8604
[1]; S55746 concentration 60, BCL-2 concentration 20 nM, independent experiment 2
  Raw data values in Figure 3h (SPR response): 2.802
[1]; S55746 concentration 60, BCL-2 concentration 30 nM, independent experiment 1
  Raw data values in Figure 3h (SPR response): 29.7852
[1]; S55746 concentration 60, BCL-2 concentration 30 nM, independent experiment 2
  Raw data values in Figure 3h (SPR response): 5.592
[1]; S55746 concentration 60, BCL-2 concentration 40 nM, independent experiment 1
  Raw data values in Figure 3h (SPR response): 46.113
[1]; S55746 concentration 60, BCL-2 concentration 40 nM, independent experiment 2
  Raw data values in Figure 3h (SPR response): 9.958
[1]; S55746 concentration 60, BCL-2 concentration 50 nM, independent experiment 1
  Raw data values in Figure 3h (SPR response): 65.5161
[1]; S55746 concentration 60, BCL-2 concentration 50 nM, independent experiment 2
  Raw data values in Figure 3h (SPR response): 18.5156
[1]; S55746 concentration 60, BCL-2 concentration 60 nM, independent experiment 1
  Raw data values in Figure 3h (SPR response): 78.402
[1]; S55746 concentration 60, BCL-2 concentration 60 nM, independent experiment 2
  Raw data values in Figure 3h (SPR response): 29.1548
[1]; S55746 concentration 60, BCL-2 concentration 70 nM, independent experiment 1
  Raw data values in Figure 3h (SPR response): 82.48
[1]; S55746 concentration 60, BCL-2 concentration 70 nM, independent experiment 2
  Raw data values in Figure 3h (SPR response): 34.7085
[1]; S55746 concentration 60, BCL-2 concentration 80 nM, independent experiment 1
  Raw data values in Figure 3h (SPR response): 84.2763
[1]; S55746 concentration 60, BCL-2 concentration 80 nM, independent experiment 2
  Raw data values in Figure 3h (SPR response): 38.0757
[1]; S55746 concentration 60, BCL-2 concentration 100 nM, independent experiment 1
  Raw data values in Figure 3h (SPR response): 87.9314
[1]; S55746 concentration 60, BCL-2 concentration 100 nM, independent experiment 2
  Raw data values in Figure 3h (SPR response): 45.7651
[1]; S55746 concentration 60, BCL-2 concentration 150 nM, independent experiment 1
  Raw data values in Figure 3h (SPR response): 91.7815
[1]; S55746 concentration 60, BCL-2 concentration 150 nM, independent experiment 2
  Raw data values in Figure 3h (SPR response): 56.7196
[1]; S55746 concentration 60, BCL-2 concentration 200 nM, independent experiment 1
  Raw data values in Figure 3h (SPR response): 93.0262
[1]; S55746 concentration 60, BCL-2 concentration 200 nM, independent experiment 2
  Raw data values in Figure 3h (SPR response): 63.1726
[2]
  CC50: 2700 ± 430 nM
[3]
  CC50: 320 ± 150 nM
